Measurements: patent US20230233569A1 (Revolution Medicines, Inc., priority 2020, published 2023)
Read-outs that look alike come from different tables or passages of the source.

What was measured:
[1] = system: Capan-1 (K-Ras G12V); assay: CellTiter-Glo cell viability assay, 5-day treatment; format: cell-based; details: Homo sapiens, CAPAN-1, 120 h
In short: (§1)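 Compounds were dispensed directly onto seeded cells and incubated for 5 days, then plates were equilibrated to room temperature for about 30 minutes before luminescence reading. Signals were expressed as percent of the mean DMSO control and fitted with a four-parameter logistic curve.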

[2] = system: NCI-H358 (K-Ras G12C); assay: as above; format: cell-based; details: Homo sapiens, NCI-H358, 120 h, 5-day treatment; read-out: H358 Cell Viability assay data (K-Ras G12C, IC50)
In short: as §1

[3] = molecular target: KRAS G12C (Homo sapiens, UniProt P01116+P62937, G12C); assay: Disruption of BRAF RBD interaction with Ras (FRET / MOA assay, with Cyclophilin A); format: biochemical; details: read-out: KRAS G12C FRET data, IC50
KRAS G12C, sequence (P01116 1-169 isoform P01116-2 G12C): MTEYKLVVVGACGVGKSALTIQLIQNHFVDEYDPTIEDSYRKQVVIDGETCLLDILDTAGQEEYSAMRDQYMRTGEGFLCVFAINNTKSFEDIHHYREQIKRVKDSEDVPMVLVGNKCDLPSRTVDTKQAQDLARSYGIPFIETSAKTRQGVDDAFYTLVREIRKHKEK
KRAS G12C, sequence (P62937 whole entry): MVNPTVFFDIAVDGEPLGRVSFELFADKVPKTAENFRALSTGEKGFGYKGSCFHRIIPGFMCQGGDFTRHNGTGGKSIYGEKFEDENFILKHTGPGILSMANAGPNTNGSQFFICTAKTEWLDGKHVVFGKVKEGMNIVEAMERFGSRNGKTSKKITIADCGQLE
In short: (§2)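 TR-FRET readout: a drop in ratio relative to DMSO wells marks disruption of the K-Ras:BRAF RBD complex via compound-induced K-Ras–Cyclophilin A ternary complex. Dosing used ten 3-fold steps from 30 μM final, 3 h at 25 °C, then Eu-anti-His 10 nM plus APC-anti-GST 50 nM for another 1.5 h. Values are IC50s.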

[4] = molecular target: KRAS G12D (Homo sapiens, UniProt P01116+P62937, G12D); assay: as above; format: biochemical; details: read-out: KRAS G12D FRET data, IC50
KRAS G12D, sequence (P01116 1-169 isoform P01116-2 G12D limits assumed): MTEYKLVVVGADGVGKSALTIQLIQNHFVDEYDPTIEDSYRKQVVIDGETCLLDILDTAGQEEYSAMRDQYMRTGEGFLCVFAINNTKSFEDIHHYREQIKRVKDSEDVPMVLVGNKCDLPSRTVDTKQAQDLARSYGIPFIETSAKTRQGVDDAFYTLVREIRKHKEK
KRAS G12D, sequence (P62937 whole entry): as the sequence (P62937 whole entry) above
In short: as §2

[5] = molecular target: KRAS G12S (Homo sapiens, UniProt P01116+P62937, G12S); assay: as above; format: biochemical; details: read-out: KRAS G12S FRET data, IC50
KRAS G12S, sequence (P01116 1-169 isoform P01116-2 G12S limits assumed): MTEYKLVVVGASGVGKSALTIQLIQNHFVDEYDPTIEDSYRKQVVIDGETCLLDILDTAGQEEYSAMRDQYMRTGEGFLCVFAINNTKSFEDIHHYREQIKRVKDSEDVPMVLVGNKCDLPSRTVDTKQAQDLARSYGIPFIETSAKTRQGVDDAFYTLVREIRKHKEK
KRAS G12S, sequence (P62937 whole entry): as the sequence (P62937 whole entry) above
In short: as §2

[6] = molecular target: KRAS G12V (Homo sapiens, UniProt P01116+P62937, G12V); assay: as above; format: biochemical; details: KRAS G12V; read-out: KRAS G12V FRET data IC50
KRAS G12V, sequence (P01116 1-169 isoform P01116-2 G12V limits assumed): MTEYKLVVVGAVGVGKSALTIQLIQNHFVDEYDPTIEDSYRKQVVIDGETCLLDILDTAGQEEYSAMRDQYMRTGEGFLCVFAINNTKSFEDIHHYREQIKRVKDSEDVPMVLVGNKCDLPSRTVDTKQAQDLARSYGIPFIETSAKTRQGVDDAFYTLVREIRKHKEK
KRAS G12V, sequence (P62937 whole entry): as the sequence (P62937 whole entry) above
In short: as §2

[7] = molecular target: KRAS G13C (Homo sapiens, UniProt P01116+P62937, G13C); assay: as above; format: biochemical; details: read-out: KRAS G13C FRET data, IC50
KRAS G13C, sequence (P01116 1-169 isoform P01116-2 G13C): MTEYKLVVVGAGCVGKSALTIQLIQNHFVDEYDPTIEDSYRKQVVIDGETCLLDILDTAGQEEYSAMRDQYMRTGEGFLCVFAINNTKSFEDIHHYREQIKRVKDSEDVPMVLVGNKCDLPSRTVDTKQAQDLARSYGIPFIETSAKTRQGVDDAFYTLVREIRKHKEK
KRAS G13C, sequence (P62937 whole entry): as the sequence (P62937 whole entry) above
In short: as §2

[8] = molecular target: KRAS G13D (Homo sapiens, UniProt P01116+P62937, G13D); assay: as above; format: biochemical; details: KRAS G13D; read-out: KRAS G13D FRET data IC50
KRAS G13D, sequence (P01116 1-169 isoform P01116-2 G13D limits assumed): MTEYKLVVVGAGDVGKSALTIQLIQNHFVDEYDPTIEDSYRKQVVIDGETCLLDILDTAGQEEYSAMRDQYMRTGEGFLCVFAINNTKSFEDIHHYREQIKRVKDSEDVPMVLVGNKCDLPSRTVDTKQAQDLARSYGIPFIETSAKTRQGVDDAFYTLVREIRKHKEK
KRAS G13D, sequence (P62937 whole entry): as the sequence (P62937 whole entry) above
In short: as §2

[9] = molecular target: KRAS WT (Homo sapiens, UniProt P01116+P62937); assay: as above; format: biochemical; details: KRAS WT; read-out: KRAS WT FRET data IC50
KRAS WT, sequence (P01116 1-169 isoform P01116-2 limits assumed): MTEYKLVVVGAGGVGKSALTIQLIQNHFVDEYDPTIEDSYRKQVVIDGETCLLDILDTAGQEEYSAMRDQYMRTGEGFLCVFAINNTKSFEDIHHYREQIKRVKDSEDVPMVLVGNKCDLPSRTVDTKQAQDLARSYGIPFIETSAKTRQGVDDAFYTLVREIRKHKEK
KRAS WT, sequence (P62937 whole entry): as the sequence (P62937 whole entry) above
In short: as §2

[10] = molecular target: NRAS G12C (Homo sapiens, UniProt P01111+P62937, G12C); assay: as above; format: biochemical; details: NRAS G12C; read-out: NRAS G12C FRET data IC50
NRAS G12C, sequence (P01111 whole entry G12C): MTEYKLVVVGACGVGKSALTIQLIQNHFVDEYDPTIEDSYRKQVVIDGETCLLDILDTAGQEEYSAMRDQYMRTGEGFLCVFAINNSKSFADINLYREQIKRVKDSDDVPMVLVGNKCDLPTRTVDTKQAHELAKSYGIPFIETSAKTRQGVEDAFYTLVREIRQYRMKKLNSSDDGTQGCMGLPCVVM
NRAS G12C, sequence (P62937 whole entry): as the sequence (P62937 whole entry) above

[11] = molecular target: KRAS Q61H (Homo sapiens, UniProt P01116+P62937, Q61H); assay: as above; format: biochemical; details: KRAS Q61H; read-out: KRAS Q61H FRET data IC50
KRAS Q61H, sequence (P01116 1-169 isoform P01116-2 Q61H limits assumed): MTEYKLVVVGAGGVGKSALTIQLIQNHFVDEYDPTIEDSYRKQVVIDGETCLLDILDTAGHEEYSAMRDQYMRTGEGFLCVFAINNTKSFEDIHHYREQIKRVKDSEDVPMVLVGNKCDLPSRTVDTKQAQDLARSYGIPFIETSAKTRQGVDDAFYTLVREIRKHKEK
KRAS Q61H, sequence (P62937 whole entry): as the sequence (P62937 whole entry) above
In short: (§3)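 TR-FRET in 25 mM HEPES pH 7.3, 100 mM NaCl, 5 mM MgCl2, 0.1% BSA: 25 μM Cyclophilin A, 12.5 nM His6-Ras-GMPPNP, 50 nM GST-BRAF RBD with compound (10-point 3-fold series from 30 μM), 3 h at 25° C. Anti-His Eu/anti-GST APC added, 1.5 h more; IC50 from decreased FRET ratio versus DMSO.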

[12] = molecular target: NRAS Q61K (Homo sapiens, UniProt P01111+P62937, Q61K); assay: as above; format: biochemical; details: NRAS Q61K; read-out: NRAS Q61K FRET data IC50
NRAS Q61K, sequence (P01111 whole entry Q61K): as the sequence (P01111 whole entry G12C) above, with C12G, Q61K counted along it
NRAS Q61K, sequence (P62937 whole entry): as the sequence (P62937 whole entry) above
In short: as §3

[13] = molecular target: NRAS Q61R (Homo sapiens, UniProt P01111+P62937, Q61R); assay: as above; format: biochemical; details: NRAS Q61R; read-out: NRAS Q61R FRET data IC50
NRAS Q61R, sequence (P01111 whole entry Q61R): as the sequence (P01111 whole entry G12C) above, with C12G, Q61R counted along it
NRAS Q61R, sequence (P62937 whole entry): as the sequence (P62937 whole entry) above
In short: as §3

[14] = molecular target: NRAS WT (Homo sapiens, UniProt P01111+P62937); assay: as above; format: biochemical; details: NRAS WT; read-out: NRAS WT FRET data IC50
NRAS WT, sequence (P01111 whole entry): as the sequence (P01111 whole entry G12C) above, with C12G counted along it
NRAS WT, sequence (P62937 whole entry): as the sequence (P62937 whole entry) above
In short: as §3

[15] = 5-day treatment, read-out: Capan-1 Cell Viability assay data (K-Ras G12V, IC50)

Row | Compound | IC50 [1, 15] [µM] | IC50 [2] [µM] | IC50 [3] [µM] | IC50 [4] [µM] | IC50 [5] [µM] | IC50 [6] [µM] | IC50 [7] [µM] | IC50 [8] [µM] | IC50 [9] [µM] | IC50 [10] [µM] | IC50 [11] [µM] | IC50 [12] [µM] | IC50 [13] [µM] | IC50 [14] [µM] | IC50 ([1]; read-out: Capan-1 Cell Viability assay data (K-Ras G12V, IC50, uM)) [µM]
1 | CCn1c(-c2cccnc2[C@H](C)OC)c2c3cc(ccc31)-c1cc(O)cc(c1)C[C@H](NC(=O)[C@H](C(C)C)N(C)C(=O)[C@H]1C[C@@H]1C)C(=O)N1CCC[C@H](N1)C(=O)OCC(C)(C)C2 [Example A287] | 0.1 to 1 | 0.1 to 1 | 0.1 to 1 | 0.1 to 1 | 0.1 to 1 | 0.1 to 1 | 0.1 to 1 | 0.1 to 1 | 0.01 to 0.1 | 0.1 to 1 | 0.01 to 0.1 | 0.1 to 1 | 0.1 to 1 | 0.01 to 0.1 | 
2 | CCn1c(-c2cccnc2[C@H](C)OC)c2c3cc(ccc31)-c1csc(n1)C[C@H](NC(=O)[C@H](C(C)C)N(C)C(=O)N1C[C@H]3CN(C)C[C@H]31)C(=O)N1CCC[C@H](N1)C(=O)OCC(C)(C)C2 [Example A497] | 0.1 to 1 | 0.1 to 1 | 0.1 to 1 | 1 to 10 | 1 to 10 | 1 to 10 | 0.1 to 1 | 1 to 10 | 1 to 10 | 0.1 to 1 | 0.1 to 1 | 0.1 to 1 | 1 to 10 | 0.1 to 1 | 
3 | CCn1c(-c2cc(C3CCN(C)CC3)cnc2[C@H](C)OC)c2c3cc(ccc31)-c1csc(n1)C[C@H](NC(=O)[C@H](C(C)C)N(C)C(=O)N1CCOCC1)C(=O)N1CCC[C@H](N1)C(=O)OCC(C)(C)C2 (atropisomer, axis not shown) [Example A505] | < 0.01 | < 0.01 | 0.01 to 0.1 | 0.1 to 1 | 0.1 to 1 | 0.1 to 1 | 0.1 to 1 | 0.1 to 1 | 0.01 to 0.1 | 0.01 to 0.1 | 0.01 to 0.1 | 0.01 to 0.1 | 0.01 to 0.1 | 0.01 to 0.1 | 
4 | CCn1c(-c2cccnc2[C@H](C)OC)c2c3cc(ccc31)-c1csc(n1)C[C@H](NC(=O)[C@H](C(C)C)N(C)C(=O)N1CCC13CCN(C)CC3)C(=O)N1CCC[C@H](N1)C(=O)OCC(C)(C)C2 [Example A273] | 0.1 to 1 | 0.01 to 0.1 | 0.01 to 0.1 | 0.1 to 1 | 0.01 to 0.1 | 0.1 to 1 | 0.1 to 1 | 0.1 to 1 | 0.1 to 1 | 0.01 to 0.1 | 0.01 to 0.1 | 0.1 to 1 | 0.1 to 1 | 0.01 to 0.1 | 
5 | CCn1c(-c2cccnc2[C@H](C)OC)c2c3cc(ccc31)-c1csc(n1)C[C@H](NC(=O)[C@H](C(C)C)N(C)C(=O)N1CCN(C(=O)CO)CC1)C(=O)N1CCC[C@H](N1)C(=O)OCC(C)(C)C2 (atropisomer, axis not shown) [Example A306] | 0.01 to 0.1 | < 0.01 | 0.01 to 0.1 | 0.1 to 1 | 0.1 to 1 | 0.1 to 1 | 0.1 to 1 | 0.1 to 1 | 0.01 to 0.1 | 0.01 to 0.1 | 0.01 to 0.1 | 0.01 to 0.1 | 0.01 to 0.1 | 0.01 to 0.1 | 
6 | CCn1c(-c2cccnc2[C@H](C)OC)c2c3cc(ccc31)-c1csc(n1)C[C@H](NC(=O)[C@@H](OC(=O)N1CC(OC)C1)C(C)C)C(=O)N1CCC[C@H](N1)C(=O)OCC(C)(C)C2 [Example A354] | 0.1 to 1 | 0.1 to 1 | 0.1 to 1 | 1 to 10 | 0.1 to 1 | 0.1 to 1 | 0.1 to 1 | 1 to 10 | 0.1 to 1 | 0.1 to 1 | 0.1 to 1 | 0.1 to 1 | 0.1 to 1 | 0.1 to 1 | 
7 | CCn1c(-c2cccnc2[C@H](C)OC)c2c3cc(ccc31)-c1csc(n1)C[C@H](NC(=O)C1CCC1)C(=O)N1CCC[C@H](N1)C(=O)OCC(C)(C)C2 [Example A369] | 0.1 to 1 | 0.1 to 1 | 0.1 to 1 | 1 to 10 | 0.1 to 1 | 0.1 to 1 | 0.1 to 1 | 0.1 to 1 | 0.1 to 1 | 0.1 to 1 | 0.1 to 1 | 0.1 to 1 | 0.1 to 1 | 0.1 to 1 | 
8 | CCn1c(-c2cccnc2[C@H](C)OC)c2c3cc(ccc31)-c1csc(n1)C[C@H](NC(=O)[C@H](C(C)C)N(C)C(=O)[C@H]1CCN(C(=O)CNC)C1)C(=O)N1CCC[C@H](N1)C(=O)OCC(C)(C)C2 [Example A99] | > 10 | > 10 | 0.1 to 1 | 0.1 to 1 | 1 to 10 | 1 to 10 | 0.1 to 1 | 1 to 10 | 0.1 to 1 | 0.1 to 1 | 0.1 to 1 | 1 to 10 | 1 to 10 | 0.1 to 1 | 
9 | CCn1c(-c2cccnc2[C@H](C)OC)c2c3cc(ccc31)-c1csc(n1)C[C@H](NC(=O)[C@H](C(C)C)N(C)C(=O)[C@@H]1CCN(C)[C@@H]1c1ccccc1)C(=O)N1CCC[C@H](N1)C(=O)OCC(C)(C)C2 [Example A464] |  | 1 to 10 | 1 to 10 | 1 to 10 | 1 to 10 | 1 to 10 | 1 to 10 | 1 to 10 | 1 to 10 | 1 to 10 | 0.1 to 1 | 1 to 10 | 1 to 10 | 1 to 10 | 1 to 10
